The test system of the test is S.D. rats. As to the kind of experiment: Indomethacin-Induced Ulcer Assay (assay B). The format is in vivo. The following applies: 15 min prior to indomethacin 10 mg/kg p.o., 24 hr. fasted rats, sacrificed four hours later. Here is the method: B. Indomethacin-Induced Ulcer Assay
Indomethacin, 10 mg/kg p.o., is used to induce ulcers in 24 hr. fasted S.D. rats. Fifteen minutes prior to indomethacin administration, groups of rats each receive either an aqueous vehicle (5% wt. methylcellulose) or the test compound at various doses perorally. Four hours later the animals are sacrificed and stomach mucosae are examined for resulting ulcers.
Following the procedure of assay B (Indomethacin-Induced Ulcer Assay), various compounds were tested for ulcer inhibition.

As for `CCCc1c(OCCCS(=O)(=O)c2ccc([C@H](O)[C@@H](C)CC(=O)O)cc2)ccc(C(C)=O)c1O` (relative stereo) [Example 77, (Beta S^*, gamma R^*) sodium 4-(3-(4-acetyl-3-hydroxy-2-propylphenoxy)propylsulfonyl)-gamma-hydroxy-beta-methylenzenebutanoate], the “% Inhib.” value (Dose 30 mg/kg p.o.) is given as 46.5%.
`CCCc1c(OCCCSc2ccc([C@H](O)[C@@H](C)CC(=O)O)cc2)ccc(C(C)=O)c1O` (relative stereo) [Example 78, (Beta S^*, gamma R^*)-sodium 4-(3-(4-acetyl-3-hydroxy-2-propylphenoxy)propylthio)-gamma-hydroxy-beta-methyl-benzenebutanoate]: the “% Inhib.” value by setting is: (Dose 0.03 mg/kg p.o.) 14.1%; (Dose 0.1 mg/kg p.o.) 27.1%; (Dose 0.3 mg/kg p.o.) 50.1%; (Dose 1 mg/kg p.o.) 70.1%; (Dose 3 mg/kg p.o.) 74.1%; (Dose 10 mg/kg p.o.) 76.1%.
Turning to `CCCc1c(OCCCOc2ccc([C@H](O)[C@@H](C)CC(=O)[O-])cc2)ccc(C(C)=O)c1O.[Na+]` (relative stereo) [Example 103, Sodium (beta S^*, gamma R^*) 4-(3-(4-acetyl-3-hydroxy-2-propylphenoxy)propyloxy)-gamma-hydroxy-beta-methylbenzenebutanoate], the “% Inhib.” value is recorded as 61.1% (Dose 0.1 mg/kg p.o.), 76.1% (Dose 1 mg/kg p.o.) and 74.1% (Dose 10 mg/kg p.o.).
`CCCc1c(OCCCS(=O)(=O)c2ccc(C(=O)CCC(=O)O)cc2)ccc(C(C)=O)c1O` [Example 29, 4-(3-(4-Acetyl-3-hydroxy-2-propylphenoxy)-propylsulfonyl)-gamma-oxobenzenebutanoic acid]: the “% Inhib.” value (Dose 30 mg/kg p.o.) is listed as 78.9%.
With `CCCc1c(OCCCSc2ccc(C(=O)CCC#N)cc2)ccc(C(C)=O)c1O` [Example 40, 4-(3-(4-acetyl-3-hydroxy-2-propyl-phenoxy)propylthio)-gamma-oxobenzenebutyronitrile], the “% Inhib.” value (Dose 30 mg/kg p.o.) worked out at 89.4%.

For the origin of these results see patent EP0156233A2, “Use of leukotriene antagonists for producing cytoprotective pharmaceutical compositions and process for producing cytoprotective pharmaceutical compositions” (Merck & Co., Inc., priority 1984, dated 1985).
